Experiment: gradient 5% acetonitrile 3 min, to 50% in 2 min, to 85% in 15 min, held 3 min, 100 µL/min
Conditions: column: Zorbax Extend-C18 2.1 x 50 mm; eluents: water / acetonitrile, 0.1% formic acid
How it was run: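 Each retention time is based on an adduct peak selected computationally and verified by manual inspection. Measurements used HPLC–quadrupole time-of-flight mass spectrometry in positive and negative ionization mode on mixtures of ~100 pure standards. Chromatography ran on a Zorbax Extend-C18 column (2.1 × 50 mm, 1.8 μm) at 100 μL/min with water and acetonitrile, each containing 0.1% formic acid, and dead and dwell volumes of 40 μL and 900 μL.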

Row | Structure (SMILES) | RP-LC retention time [s]
1 | COc1ccc2oc(-c3ccccc3)c(C(=O)Nc3nccs3)c2c1 | 931
2 | COc1ccccc1-c1nnc(N)s1 | 598
3 | CN1C(=O)C(CC(=O)NC2CCCCC2)Sc2ncccc21 (centres undefined) | 703
4 | Cc1ccc(C(=O)N2[C@H]3CC[C@@H]2c2cnc(C)nc2C3)cn1 | 562
5 | COc1ccc(-c2csc(Nc3cccnc3)n2)cc1OC | 620
6 | CCn1cc(C)c(C(=O)O)c1CC(=O)N1CCCc2ccccc21 | 811
7 | C[C@H]1CN(C(=O)Nc2ccc3c(c2)CCC3)C[C@@H]1c1nc(-c2cccnc2)no1 | 866
8 | COCCO[C@H]1C(=O)N(C2CCN(S(C)(=O)=O)CC2)[C@H]1c1ccncc1 | 543
9 | CCc1ccc(NC(=O)C2CCN(c3cncnc3N3CCOCC3)CC2)cc1 | 675
10 | COc1ccc(CN2CCC([C@@H]3CNC[C@H]3CO)CC2)cc1Cn1ccnc1 | 572
11 | O=C(NC1CCN(c2cc(-c3ccccc3)[nH]n2)C1)c1cc(F)ccc1Cl (centres undefined) | 708
12 | Cc1ccc(-n2cc(C(=O)OCC(=O)OC(C)(C)C)c3ccccc3c2=O)cc1 | 1210
13 | CN1CCN(c2cc(-c3nc(-c4ccc(Cl)cc4)no3)c3ccccc3n2)CC1 | 881
14 | CN1C(=O)c2ccccc2C(C(=O)Nc2ccc(F)cc2F)C1c1cccs1 (centres undefined) | 884
15 | COc1cc(Br)cc2c1OC1(C)CC2NC(=O)N1c1cccc(C(=O)O)c1 (centres undefined) | 672
16 | O=S(=O)(c1ccccc1)N1CCc2nc(-c3ccc(F)cc3)ncc2C1 | 1040
17 | CCc1ccc(S(=O)(=O)Nc2cccc(-c3nc4cccnc4s3)c2C)s1 | 942
18 | c1ccc(-c2nc3ccccc3nc2N2CCOCC2)cc1 | 995
19 | O=S(=O)(c1cccc(-c2nnc(-c3ccc(Cl)cc3)o2)c1)N1CCOCC1 | 995
20 | O=S(=O)(c1c[nH]c2ncccc12)N1CCc2ccccc21 | 763
21 | CCOC(=O)N1CCN(C(=O)c2cc(-c3ccco3)on2)CC1 | 735
22 | CCOC(=O)c1c(S(=O)(=O)N2CCC(C(=O)Nc3cccc(F)c3)CC2)c(C)n(C)c1C | 862
23 | Cc1ccc(-c2cc3c(=O)n(Cc4noc(CN5CCCCC5C)n4)ccn3n2)cc1 (centres undefined) | 674

Row | Structure (SMILES) | RP-LC retention time [s]
24 | O=C(Nc1nc(CC(=O)N2CCN(C(=O)C3CCCO3)CC2)cs1)c1ccsc1 (centres undefined) | 606
25 | COc1ccc(NC(=O)NC2CCN(c3ccc(F)cc3)C2=O)cc1F (centres undefined) | 781
26 | COc1ccc(S(=O)(=O)N2CCCC(C(=O)Nc3cc(Cl)ccc3OC)C2)cc1Cl (centres undefined) | 1110
27 | CCn1c(=O)c2ccn(CC(=O)N3CCN(Cc4ccc5c(c4)OCO5)CC3)c2n(CC)c1=O | 591
28 | Cc1ccc2c(c1)N(C(=O)CCC(=O)NCCCN1CCC(N3CCCCC3)CC1)CC(C)O2 (centres undefined) | 576
29 | Cn1cc(C2=C(c3cn(C4CCN(Cc5ccccn5)CC4)c4ccccc34)C(=O)NC2=O)c2ccccc21 | 753
30 | CN(CCNC(=O)C1CCCN(S(=O)(=O)c2ccc3c(ccn3C)c2)C1)Cc1ccccc1 (centres undefined) | 704
31 | c1ccc(-c2ccc(C(c3ccccc3)n3ccnc3)cc2)cc1 (centres undefined) | 906
32 | CCOc1ccccc1NC(=O)Cc1c(C)nn(-c2nc(-c3ccc(F)cc3)cs2)c1C | 1290
33 | CCc1nnc2cc(N3CCN(Cc4ccc(C(C)C)cc4)CC3)cnn12 | 608
34 | CCc1noc(NC(C)=O)c1-c1ccc(C)c(S(=O)(=O)Nc2cc(Cl)ccc2C)c1 | 891
35 | COc1ccccc1N1CCN(C(=O)c2sc3ncccc3c2-n2cccc2)CC1 | 963
36 | COc1cccc(CNC(=O)N2CCC(N3CCN(Cc4cccc(F)c4)C(=O)C3=O)CC2)c1 | 688
37 | CC(=O)c1cccc(NC(=O)NC(c2ccccc2)c2nnc(-c3ccccc3)o2)c1 (centres undefined) | 892
38 | CN(C)CCNC(=O)C1CCCN(c2ccc(Sc3ccc(Br)cc3)nn2)C1 (centres undefined) | 648
39 | Cc1nc(-c2csc(S(=O)(=O)N3CCCC(C(=O)Nc4ccc5c(c4)OCO5)C3)c2)no1 (centres undefined) | 894
40 | O=C(NCC12CCC=C1N(CC1CC1)C(=O)CC2)Nc1cccc(F)c1 (centres undefined) | 876
41 | COc1ccccc1NC(=O)c1c(NC(=O)C(C)C)sc2c1CCC2 | 815
42 | CC(C)NC(=O)c1c2c(nc3ccccc13)CCC2 | 593
43 | CCc1noc(NC(C)=O)c1-c1ccc(OC)c(S(=O)(=O)N2CCN(c3ncccn3)CC2)c1 | 723
44 | CC(C)n1c(CCNC(=O)Cc2ccsc2)nc2cccnc21 | 624
45 | COc1ccc(Cl)cc1N1CC(c2nc(-c3ccc(C)cc3)no2)CC1=O (centres undefined) | 1050

Other lines, results leading:

Row | RP-LC retention time [s] | Structure (SMILES)
46 | 601 | CCCc1cc(N2CCN(C(=O)c3cccs3)CC2)nc2nncn12
47 | 588 | CCn1cnc2cc(-c3noc(CNC(=O)c4ccco4)n3)ccc21
48 | 818 | CC(C)(NC(=O)c1ccoc1)c1nc2c(c(C(N)=O)n1)OCO2
49 | 590 | CCCNc1cc(N2CCC(CCC(=O)NCCOC)CC2)ncn1
50 | 899 | O=C(Cn1ccn2nc(-c3ccc(F)cc3)c(CO)c2c1=O)N1CCCc2ccccc21
51 | 766 | O=C(CSc1nnc2c3sc(N4CCCC4)nc3ncn12)Nc1ccc2c(c1)OCO2
52 | 690 | O=C(c1ccco1)N1CCN(S(=O)(=O)c2cc3c4c(c2)CCC(=O)N4CCC3)CC1
53 | 658 | Cc1noc(-c2ccc(NC(=O)c3cn(C)nn3)cc2)n1
54 | 912 | COc1ccc(-c2noc(C3CC(=O)N(c4ccc(F)cc4)C3)n2)cc1 (centres undefined)
55 | 892 | COc1ccc(NC(=O)c2nnc(COCC(=O)NCCc3c[nH]c4ccc(C)cc34)s2)cc1
56 | 1160 | Cc1nc(-c2cccc(F)c2)sc1CCNC(=O)C(=O)Nc1ccccc1Cl
57 | 702 | N#Cc1ccc2[nH]cc(CCCCN3CCN(c4ccc5oc(C(N)=O)cc5c4)CC3)c2c1
58 | 610 | NS(=O)(=O)c1ccc(NC(=O)c2cnc3ccccn3c2=O)cc1
59 | 654 | Cc1cnc(C2CC2)n1C1CCCN(S(=O)(=O)c2ccccc2)C1 (centres undefined)
60 | 649 | O=C(NCc1ccnc(N2CCSCC2)c1)Nc1ccc(Cl)cc1
61 | 973 | COC(=O)c1ccc(-c2nc3cnccn3c2NC2CCCCC2)cc1
62 | 735 | COc1cc(NC(=O)COc2nc(C)nc3ccccc23)cc(OC)c1
63 | 839 | Cn1cccc1C(=O)N1CCN(C(=O)c2nnn3c2COC(c2ccc(Cl)cc2)C3)CC1 (centres undefined)
64 | 821 | Cc1nc(Cn2cccc2C(=O)Nc2cccc(C)c2C)no1
65 | 650 | Cc1oc(-c2[nH]ncc2C(=O)N(C)C)cc1S(=O)(=O)NC1CCCC1
66 | 642 | CC1CCN(CCCNC(=O)c2nnc(-c3ccc(S(=O)(=O)N4CCCC4)cc3)o2)CC1
67 | 660 | CC1CCN(c2nc(C(=O)NCc3ccccn3)nc3c2cnn3C)CC1

Row | RP-LC retention time [s] | Structure (SMILES)
68 | 655 | COc1ccc(CNC(=O)Nc2cccc(-c3ccc(N4CCOCC4)nn3)c2)cc1
69 | 750 | CN(C)C(=O)c1ccc2c(c1)N(CC(=O)Nc1ccc3c(c1)OCCO3)C(=O)C1CCCCN21 (centres undefined)
70 | 888 | Cc1sc(NC(=O)CCc2ccccc2)nc1-c1ccc2c(c1)NC(=O)CO2
71 | 714 | Cc1cccc(NC(=O)Cn2ncc3c(c2=O)N(C2CC2)C(=O)CS3)c1C
72 | 802 | c1ccc(CC2CCN(Cc3nc(-c4ccc(N5CCCCC5)nc4)no3)CC2)cc1
73 | 888 | CCCNC(=O)N1CCC2(CC1)Nc1cc(F)ccc1-n1cccc12
74 | 1040 | COc1ccc(OC)c(NC(=O)N2CCC3(CC2)Nc2ccccc2-n2cccc23)c1
75 | 610 | CCNC(=O)Nc1ccc2c(c1)CN(CC1CCCCC1)CCO2
76 | 864 | COc1ccc(C)cc1NC(=O)C1CCCN(c2ncnc3c2nc2n3CCCCC2)C1 (centres undefined)
77 | 582 | Cc1ccccc1CNC(=O)c1ccc2c(c1)ncn2CCN1CCCC1
78 | 708 | COc1cccc(S(=O)(=O)N2CCOCC2)c1
79 | 729 | Cc1ccc(CSc2nccc3c2ccn3CC(=O)NCc2ccco2)cc1
80 | 987 | CCOc1ccc(-c2nn3c(CSc4ccccc4)nnc3s2)cc1OC
81 | 693 | Cc1cc(C)cc(Nc2c(C(=O)N3CCC(C)CC3)cnc3nc(C)ccc23)c1
82 | 962 | CCC(C(=O)Nc1ccc(-c2nc(Cn3cccn3)c(C)o2)cc1)c1ccccc1 (centres undefined)
83 | 562 | Cc1cnc(C2CC2)n1CCNC(=O)C1CC=CC1
84 | 855 | CS(=O)(=O)c1ccc(-c2cccc(NS(=O)(=O)c3ccc4c(c3)CCCC4)c2)nn1
85 | 665 | COc1ccc(Cl)cc1C(=O)N1CCN(c2cc(C)nc(N3CCCC3)n2)CC1
86 | 810 | CC(C(=O)NCCc1ccccc1)n1cnc2nc(N3CCCCC3)ncc2c1=O (centres undefined)
87 | 730 | O=C(Cn1cnc2ccccc2c1=O)N1CCCC(c2nnc(-c3ccccc3F)s2)C1 (centres undefined)
88 | 653 | COCc1nc2c(NC(=O)C(C)C)cccn2n1
89 | 758 | O=C(NCc1ccco1)c1cc2c(s1)CCN(C(=O)c1ccccc1)C2

— the METLIN SMRT retention time set (Domingo-Almenara et al. 2019)
